Assay results: patent publication US20230365488A1, “TRUXILLIC ACID MONOESTER-DERIVATIVES AS SELECTIVE FABP5 INHIBITORS AND PHARMACEUTICAL COMPOSITIONS AND USES THEREOF” (The Research Foundation for The State University of New York, priority 2020, published 2023)

Experiments:
FABP3 = FABP3 (Homo sapiens (Human), UniProt P05413); assay: FABP3 fluorescent probe displacement binding assay; conditions: average ± S.E. of at least three independent experiments
FABP5 = FABP5 (Homo sapiens (Human), UniProt Q01469); assay: FABP5 fluorescent probe displacement binding assay; conditions: for Ki: average ± S.E. of at least three independent experiments; for FABP3 Ki/FABP5 Ki: selectivity ratio FABP3 over FABP5
Chain of FABP5 (Q01469 whole entry): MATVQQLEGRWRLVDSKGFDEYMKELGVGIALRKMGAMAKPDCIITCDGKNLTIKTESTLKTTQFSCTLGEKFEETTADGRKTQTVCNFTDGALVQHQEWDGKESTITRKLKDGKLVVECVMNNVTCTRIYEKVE

FABP7 = FABP7 (Homo sapiens (Human), UniProt O15540); assay: FABP7 fluorescent probe displacement binding assay; conditions: average ± S.E. of at least three independent experiments
Chain of FABP7 (O15540 whole entry): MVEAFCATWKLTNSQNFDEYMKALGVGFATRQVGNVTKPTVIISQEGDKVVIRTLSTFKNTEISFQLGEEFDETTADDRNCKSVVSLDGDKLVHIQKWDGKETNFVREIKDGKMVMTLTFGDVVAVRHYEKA

[1] = system: PC-3 (human metastatic prostate cancer) cells; assay: Cytotoxicity (MTT) assay, PC-3 (Example 5); assay type: cell-based; conditions: 72-hour incubation, 1% FBS, read-out: PC3 IC50
[2] = system: HepG2 (human liver cancer) cells; assay: Cytotoxicity (MTT) assay, HepG2 (Example 5); assay type: cell-based; conditions: 72-hour incubation, 1% FBS
[3] = system: WI-38 (human normal lung fibroblast) cells; assay: Cytotoxicity (MTT) assay, WI-38 (Example 5); assay type: cell-based; conditions: 72-hour incubation, 1% FBS

Chain of FABP3 (P05413 whole entry): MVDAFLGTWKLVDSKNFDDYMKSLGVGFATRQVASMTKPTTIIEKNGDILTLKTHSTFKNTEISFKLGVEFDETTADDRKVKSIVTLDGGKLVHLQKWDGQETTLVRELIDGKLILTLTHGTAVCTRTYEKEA

SMILES	Ki (FABP3) [µM]	Ki (FABP5) [µM]	FABP3 Ki/FABP5 Ki (FABP5)	Ki (FABP7) [µM]	IC50 [1] [µM]	IC50 [2] [µM]	IC50 [3] [µM]
N#Cc1ccc(-c2ccccc2OC(=O)[C@H]2C(c3ccccc3)[C@@H](C(=O)O)[C@H]2c2ccccc2)cc1 (mixture of isomers) [Compound 2d, (±)-γ-3-(4′-cyano-1,1′-biphenyl]-2-yloxycarbonyl)-2,4-diphenylcyclobutane-1-carboxylic acid]	5.78 ± 1.3	1.39 ± 0.07	4.1	0.95 ± 0.05	–	–	–
O=C(O)[C@@H]1[C@@H](c2ccccc2)[C@H](C(=O)OCc2cccc3ccccc23)[C@H]1c1ccccc1 [Compound 3f, ε-2,4-diphenyl-3-(napthylen1-yl)methoxycarbonylcyclobutane-1-carboxylic acid]	7.42 ± 1.38	5.08 ± 0.62	1.5	0.86 ± 0.04	0.95	1.26	1.6
COc1ccccc1[C@@H]1C(C(=O)O)[C@@H](c2ccccc2OC)C1C(=O)Oc1ccccc1-c1ccc2c(c1)OCO2 (mixture of isomers) [Compound 1n, (±)-α-3-[2-(bnzo[d][1,3]dioxol-5-yl)phenoxycarbonyl]-2,4-di (2-methoxyphenyl)cyclobutane-1-carboxylic acid]	1.28 ± 0.28	1.59 ± 0.11	0.8	0.26 ± 0.09	20.7	23.5	59.4
COc1ccccc1[C@H]1[C@H](C(=O)O)[C@H](c2ccccc2OC)[C@@H]1C(=O)Oc1cccc(-c2ccc(F)cc2)c1 [Compound 3e, ε-2,4-diphenyl-3-(4-fluorophenyl)phenoxycarbonylcyclobutane-1-carboxylic acid]	15.5 ± 1.91	3.4 ± 0.52	4.7	2.19 ± 0.04	–	–	–
O=C(O)[C@H]1[C@H](c2ccccc2)[C@H](C(=O)Oc2ccccc2-c2ccccc2)[C@H]1c1ccccc1 [Compound 1z]	0.7 ± 0.42	–	–	–	–	–	–
COc1ccccc1C1[C@@H](C(=O)O)[C@@H](c2ccccc2OC)[C@@H]1C(=O)Oc1ccccc1-c1ccc2c(c1)OCCO2 (mixture of isomers) [Compound 1s, (±)-α-3-[2-(2,3-dihydrobenzo[b][1,4]dioxin-6-yl)phenoxycarbonyl]-2,4-bis(2-methoxyphenyl)cyclobutane-1-carboxylic acid]	2.29 ± 0.56	2.81 ± 0.42	0.8	0.67 ± 0.15	–	–	–
COc1ccccc1C1[C@@H](C(=O)OC2Cc3ccccc3C2)[C@@H](c2ccccc2OC)[C@H]1C(=O)O (mixture of isomers) [Compound 2l, (±)-γ-3-(2,3-dihydro-1H-inden-2-yloxycarbonyl)-2,4-bis(2-methoxyphenyl)cyclobutane-1-carboxylic acid]	136 ± 16.4	–	–	5.14 ± 0.27	–	–	–
COc1ccccc1[C@@H]1[C@H](C(=O)O)[C@@H](c2ccccc2OC)[C@H]1C(=O)Oc1ccc2cc(-c3cncnc3)ccc2c1 (racemic) [Compound 1k, (±)-α-2,4-di (2-methoxyphenyl)-3-[7-(5-pyrimidine)naphthalen-2-yloxycarbonyl]cyclobutane-1-carboxylic acid]	4.78 ± 0.18	1.3 ± 0.09	3.7	6.36 ± 1.04	–	–	–
COc1ccccc1C1[C@@H](C(=O)O)[C@@H](c2ccccc2OC)[C@H]1C(=O)Oc1cccc(-c2ccc3c(c2)OCCO3)c1 (mixture of isomers) [Compound 2k, (±)-γ-3-[3-(2,3-dihydrobenzo[b][1,4]dioxin-6-yl)phenoxycarbonyl]-2,4-di(2-methoxyphenyl)cyclobutane-1-carboxylic acid]	8.18 ± 2.67	3.69 ± 0.65	2.2	5.12 ± 0.32	–	–	–
O=C1CCc2ccc(-c3cccc(OC(=O)[C@H]4[C@@H](c5ccccc5)[C@H](C(=O)O)[C@@H]4c4ccccc4)c3)cc2N1 [Compound 1u]	7.67 ± 0.71	0.59 ± 0.08	13.0	0.33 ± 0.01	–	–	–
O=C(O)[C@H]1[C@H](c2ccccc2)[C@H](C(=O)OCc2cccc3ccccc23)[C@H]1c1ccccc1 [Compound 1r, α-2,4-diphenyl-3-(1-naphthaylmethyl)cyclobutane-1-carboxylic acid]	51.2 ± 5.71	2.64 ± 0.01	9.0	10.2 ± 1.42	–	–	–
O=C(O)[C@H]1[C@@H](c2ccccc2)[C@H](C(=O)OC2Cc3ccccc3C2)[C@@H]1c1ccccc1 [Compound 1v]	> 10	–	–	2.41 ± 0.09	–	–	–
COc1ccccc1C1[C@@H](C(=O)O)[C@@H](c2ccccc2OC)[C@@H]1C(=O)Oc1cccc(-c2ccc3c(c2)NC(=O)C3)c1 (mixture of isomers) [Compound 1j, (±)-α-2,4-di (2-methoxyphenyl)-3-[3-(2-oxoindolin-6-yl)phenoxycarbonyl]cyclobutane-1-carboxylic acid]	3.29 ± 0.45	1.06 ± 0.08	–	–	–	–	–
COc1ccccc1C1[C@@H](C(=O)O)[C@@H](c2ccccc2OC)[C@@H]1C(=O)OC1Cc2ccccc2C1 (mixture of isomers) [Compound 1l, (±)-α-3-(2,3-dihydro-1-inden-2-yloxycarbonyl)-2,4-di (2-methoxyphenyl)cyclobutane-1-carboxylic acid]	53.8 ± 7.28	–	–	53.8 ± 7.28	48.9	45.5	63.7
COc1ccccc1[C@H]1[C@H](C(=O)O)[C@H](c2ccccc2OC)[C@H]1C(=O)OCC1(F)c2ccccc2-c2ccccc21 [Compound 1t]	25.9 ± 2.4	1.83 ± 0.27	14.2	7.72 ± 1.2	–	–	–
O=C1CCc2cc(-c3cccc(OC(=O)[C@H]4[C@@H](c5ccccc5)[C@@H](C(=O)O)[C@@H]4c4ccccc4)c3)ccc2N1 (racemic) [Compound 2n, (±)-γ-3-[(3-(2-oxo-1,2,3,4-tetrahydroquinolin-6-yl)phenoxycarbonyl]-2,4-diphenylcyclobutane-1-carboxylic acid]	4.07 ± 0.24	7.59 ± 1.11	0.54	3.49 ± 0.49	–	–	–
O=C(O)[C@@H]1[C@@H](c2ccccc2)[C@H](C(=O)OC2Cc3ccccc3C2)[C@H]1c1ccccc1 [Compound 3a, (±)-ε-3-[(2,3-dihydro-1H-inden-2-yl)oxycarbonyl]-2,4-diphenylcyclobutane-1-carboxylic acid]	4.75 ± 0.57	–	–	2.07 ± 0.09	–	–	–
O=C(O)[C@@H]1[C@@H](c2ccccc2)[C@H](C(=O)Oc2cccc3ccccc23)[C@H]1c1ccccc1 [Compound 3g]	0.32 ± 0.03	–	–	0.38 ± 0.08	10.6	36.9	54.2
COc1ccccc1C1[C@@H](C(=O)O)[C@@H](c2ccccc2OC)[C@H]1C(=O)Oc1cccc(-c2ccc(C#N)cc2)c1 (mixture of isomers) [Compound 2g, (±)-γ-3-(4′-cyano-1,1′-biphenyl]-3-yloxycarbonyl)-2,4-di (2-methoxyphenyl)cyclobutane-1-carboxylic acid]	27.9 ± 6.37	2.46 ± 0.19	11.3	9.11 ± 1.47	–	–	–
O=C(O)[C@H]1[C@H](c2ccccc2)[C@@H](C(=O)Oc2ccc3cc(-c4cncnc4)ccc3c2)[C@H]1c1ccccc1 (racemic) [Compound 2m, (±)-γ-2,4-diphenyl-3-[6-(pyrimidin-5-yl)naphthalen-2-yloxy)carbonyl]cyclobutane-1-carboxylic acid]	1.3 ± 0.18	2.56 ± 0.17	0.51	4.19 ± 0.71	–	–	–
COc1ccccc1[C@H]1[C@H](C(=O)O)[C@H](c2ccccc2OC)[C@@H]1C(=O)Oc1cccc2ccccc12 (racemic) [Compound 2f, (±)-γ-2,4-di (2-methoxyphenyl)-3-(naphthalen-1-yloxycarbonyl)cyclobutane-1-carboxylic acid]	1.66 ± 0.45	–	–	1.45 ± 0.52	–	–	–
COc1ccccc1[C@H]1[C@H](C(=O)O)[C@H](c2ccccc2OC)[C@@H]1C(=O)Oc1cccc(-c2ccc(F)cc2)c1 (racemic) [Compound 2e, (±)-γ-3-(4′-fluoro-1,1′-biphenyl-3-yl)oxycarbonyl-2,4-di (2-methoxyphenyl)cyclobutane-1-carboxylic acid]	6.1 ± 1.34	1.77 ± 0.02	3.4	3.59 ± 0.24	–	–	–
O=C(O)[C@@H]1[C@@H](c2ccccc2)[C@H](C(=O)Oc2cccc(-c3ccccc3)c2)[C@H]1c1ccccc1 [Compound 3b, (±) -ε-3-(1,1′-biphenyl-3-yloxycarbonyl)-2,4-diphenylcyclobutane-1-carboxylic acid]	18.6 ± 0.73	–	–	2.15 ± 0.09	–	–	–
O=C(O)[C@@H]1C(c2ccccc2)[C@@H](C(=O)Oc2ccccc2-c2ccc3c(c2)OCO3)[C@@H]1c1ccccc1 (mixture of isomers) [Compound 1i, (±)-α-3-[2-(benzo[d][1,3]dioxol-5-yl)phenoxycarbonyl]-2,4-di (2-dimethoxyphenyl)cyclobutane-1-dicarboxylic acid]	1.13 ± 0.15	0.79 ± 0.18	1.4	0.32 ± 0.13	–	–	–
COc1ccccc1C1[C@@H](C(=O)O)[C@@H](c2ccccc2OC)[C@@H]1C(=O)Oc1cccc(-c2ccc(C#N)cc2)c1 (mixture of isomers) [Compound 1p, (±)-3-(4′-cyano-1,1′-biphenyl-3-yloxycarbonyl)-2,4-di (2-methoxyphenyl)cyclobutane-1-carboxylic acid]	4.64 ± 0.04	1.74 ± 0.08	2.7	3.16 ± 0.43	–	–	–
O=C(O)[C@@H]1[C@@H](c2ccccc2)[C@H](C(=O)Oc2cccc(-c3ccc4c(c3)OCCO4)c2)[C@H]1c1ccccc1 [Compound 3d, (±)-ε-3-[3-(2,3-dihydrobenzo[b][1,4]dioxin-6-yl)phenoxycarbonyl]-2,4-diphenylcyclobutane-1-carboxylic acid]	7.84 ± 0.7	3.15 ± 0.28	2.5	1.49 ± 0.15	–	–	–
O=C(O)[C@H]1[C@H](c2ccccc2)[C@H](C(=O)Oc2cccc3ccccc23)[C@H]1c1ccccc1 [Compound 1x]	2.7 ± 0.42	–	–	0.45 ± 0.07	–	–	–
